Laboratory results published in US12350253B2, “Use of cannabinoids in the treatment of dyskinesia associated with parkinson's disease” (Jazz Pharmaceuticals Research UK Limited, priority 2019, dated 2025).
“Also recorded” adds a separate entry of the source.

Assays:
nigral neurons = conditions: various experimental models of PD; cited from earlier work
[1] = tested on: L-DOPA-induced dyskinesia in Pitx3−/− mice; test: L-DOPA-induced dyskinesia (AIMs), THCV co-administered daily with L-DOPA; format: in vivo; conditions: for duration of AIMs (three/four-paw dyskinetic movements): vs L-DOPA alone
Method: Pitx3^−/− aphakia mice and their wildtype littermates, were genotyped using PCR amplification analysis of tail-tip DNA extracts. Mice were housed under a 12 h dark/light cycle with free access to food and water. They were used for experimental purposes at the age of 4-6 month-old (24-30 g of weight).
(§1) In a first experiment, animals were treated with an i.p. injection of 10 mg/kg of benserazide hydrochloride followed 20 minutes later by a second i.p. injection of 10 mg/kg of L-DOPA methyl ester. Separate groups of animals received equivalent injections with vehicle (saline) used as controls. Both L-DOPA- and vehicle-treated mice received, 10 minutes after the second injection, a third i.p. injection of THCV (2 mg/kg) or vehicle (Tween 80-saline). The same treatment schedule was repeated daily during approximately two weeks.
(§2) AIMs were assessed 30 and 60 min after L-DOPA administration. Dyskinesia was scored off-line by a blind rater based on video footage. Ratings were assessed for four minutes at each time point.
(§3) Total dyskinesia was rated by adding the duration in seconds of all three-paw and four-paw dyskinetic bouts. Additionally, on odd days, individual mice were placed in actimeters and motor activity was assessed following drug administration.
On Day 14, we evaluated AIMs every 20 min for 160 min after administering L-DOPA to determine the extinction of this response.

Pitx3−/− mice [2] = test: Locomotor activity (multicage activity meter); format: in vivo
Method: as §1
Horizontal and vertical activities were recorded, using a multicage activity meter system consisting of a set of 8 individual cages measuring 20×20×28 cm. Animals were introduced in the actimeter 60 minutes after L-DOPA injection and were assessed for 30 minutes. Horizontal movement was detected by 2 arrays of 16 infrared beams, whereas a third array positioned 4 cm above the floor detected vertical movement.
The software is capable of differentiating between repetitive interruptions of the same photobeam and interruptions of adjacent photobeams. The latter measure was used as an index of ambulatory activity.

Pitx3−/− mice [3] = test: Rotarod test (motor coordination); format: in vivo; conditions: THCV co-administered with L-DOPA; after 12 days of daily treatment; vs L-DOPA
Method: as §1
Motor coordination was tested using a rotarod. The rotarod was set at a constant speed (10 revolutions per minute) and latency to fall from the rod was assessed. Cut off time was 180 seconds. Before testing, mice were previously habituated in one training session, as described previously.

FosB = FosB immunostaining in striatum; format: in vivo, mice; conditions: chronic THCV with L-DOPA vs chronic L-DOPA
Method: (§4) Following behavioral analysis, animals were euthanized 1 hour after the last injection of L-DOPA. The brains were post-fixed for 24 h and were then transferred to a solution of 0.1 M phosphate buffer containing 0.02% sodium azide for storage at 4° C. To obtain regular blocks, brains were further immersed in 3% agarose and cut in coronal sections (30 μm thick) using a vibratome.
(§5) Immunostaining was carried out in free-floating sections using a standard avidin-biotin immunocytochemical protocol with the following rabbit antisera: (i) FosB (1:7500), and (ii) anti phospho(Ser10)-acetyl (Lys14)-Hystone 3 (pAcH3; 1:500).
(§6) After incubation with primary antibody (overnight), the sections were washed and incubated with biotinylated secondary anti-rabbit antibody (1:500) for 1 h at room temperature. After washing, the sections were incubated with streptavidin for 1 h and antibody staining was developed using DAB.
For immunostaining quantification in the completely denervated area, we used the Neurolucida software. […]
(§7) Regarding the quantification of FosB and pAcH3 immunoreactivity, it was carried out using an image analysis system.
(§8) For all sides, immunostaining intensity and number of immunolabeled nuclei were determined using five serial rostrocaudal sections per animal and three counting frames (dorsal, dorsolateral and lateral) per section (0.091 mm2 each frame). […]

[4] = tested on: phospho(Ser10)-acetyl (Lys14)-Hystone 3 (pAcH3); test: pAcH3 immunostaining in striatum; format: in vivo, mice; conditions: chronic THCV with L-DOPA vs chronic L-DOPA
Method: as §4, §5, §6, §7
as §8, with “frame). Images were digitized with Leica microscope under 40× lens. Before counting, images were thresholded at a standardized grey-scale level.” for “frame).”

[5] = tested on: established L-DOPA-induced dyskinesia in Pitx3−/− mice; test: Established L-DOPA-induced dyskinesia (AIMs), THCV started after about two weeks of L-DOPA; format: in vivo; conditions: 30 min after L-DOPA; for duration of L-DOPA-induced three/four-paw dyskinesia, established dyskinesia: THCV 2 mg/kg from day 14 after 13 days of L-DOPA, vs L-DOPA alone
Method: In a second experiment, benserazide and L-DOPA (and their corresponding vehicles) were administered to mice following the same schedule than in the previous experiment, but THCV, again at the dose of 2 mg/kg, was given for the first time after approximately two weeks of daily benserazide/L-DOPA treatment, with the administration of the three compounds (and vehicles) extending for at least 3 days.
as §2, §3

parkinsonian rats = conditions: acute treatment; cited from earlier work
[6] = tested on: 6-hydroxydopamine rat model of Parkinson's disease; conditions: oral coadministration of L-DOPA and rimonabant; cited from earlier work
[7] = THCV co-administered with L-DOPA, 60 min after L-DOPA, vs L-DOPA

## C=C(C)[C@@H]1CCC(C)=C[C@H]1c1c(O)cc(CCCCC)cc1O [CBD, cannabidiol]
Nigral neurons
  protection of nigral neurons from death caused by different insults: able to protect nigral neurons from death

## CCCc1cc(O)c2c(c1)OC(C)(C)[C@@H]1CCC(C)=C[C@@H]21 [THCV, tetrahydrocannabivarin]
[1]; 30 min post-L-DOPA, THCV 2 mg/kg i.p. daily with L-DOPA 10 mg/kg i.p., except days 1 and 3
  duration of AIMs (three/four-paw dyskinetic movements): attenuates dyskinesia; also recorded: reduced the duration of AIMs
[1]; 60 min post-L-DOPA, THCV 2 mg/kg i.p. daily with L-DOPA
  duration of AIMs (three/four-paw dyskinetic movements): to a lesser extent; also recorded: significant differences only at days 7 and 13 of treatment
[1]; THCV 2 mg/kg i.p. alone, no L-DOPA
  dyskinetic movements with THCV alone: showed no dyskinetic movements
[1]; day 1 of treatment, 30 min and 60 min, THCV 2 mg/kg with L-DOPA
  dyskinesias score, acute co-treatment: decreases, but not significantly
[1]; last day of treatment, AIMs every 20 min over 160 min
  time post-treatment up to which difference from L-DOPA alone remained (kinetic profile of AIMs): up to 80 minutes
Pitx3−/− mice [2]; THCV alone vs vehicle
  horizontal activity: no effect on the horizontal activity
  vertical activity: did elevate vertical activity by itself
Pitx3−/− mice [2]; [7]
  horizontal activity: attenuating the elevated horizontal and vertical activities
  vertical activity: attenuating the elevated horizontal and vertical activities
Pitx3−/− mice [3]
  rotarod performance (latency to fall): improved motor coordination in rotarod; also recorded: improved the deteriorated rotarod performance
FosB
  immunostaining intensity of FosB-positive cells in striatum: attenuates the immunostaining-intensity of FosB positive nuclei; also recorded: reduction affected both the number and the immunostaining intensity
  number of FosB-positive cells in striatum: attenuates the increased expression of FosB-positive cells; also recorded: reduction affected both the number and the immunostaining intensity
[4]
  immunostaining intensity of pAcH3-positive nuclei in striatum: decreases the intensity of nuclei; also recorded: beneficial effects
  number of pAcH3-positive nuclei in striatum: only evident in the intensity of immunostained-nuclei
[5]; THCV 2 mg/kg
  persistence of the reduction of established dyskinesia: 3 days
[5]
  duration of L-DOPA-induced three/four-paw dyskinesia, established dyskinesia: significantly reduced dyskinesia
[5]; listed as Δ9-THCV
  duration of L-DOPA-induced three/four-paw dyskinesia, established dyskinesia: active in reducing the duration of L-DOPA-induced three/four-paw dyskinesia
Parkinsonian rats
  motor inhibition: efficacious in reducing motor inhibition
  potency in reducing motor inhibition relative to rimonabant: equivalent to rimonabant

## Cc1c(C(=O)NN2CCCCC2)nn(-c2ccc(Cl)cc2Cl)c1-c1ccc(Cl)cc1 [rimonabant]
[6]
  abnormal involuntary movements and dystonia: decreased abnormal involuntary movements and dystonia

## CCCCCc1cc(O)c2c(c1)OC(C)(C)[C@@H]1CCC(C)=C[C@@H]21 [THC, tetrahydrocannabinol]
Nigral neurons
  protection of nigral neurons from death caused by different insults: able to protect nigral neurons from death

## CCCCCCC(C)(C)c1ccc([C@@H]2C[C@H](O)CC[C@H]2CCCO)c(O)c1 [CP55,940]
Nigral neurons
  protection of nigral neurons from death caused by different insults: able to protect nigral neurons from death

## CCCCC/C=C\C/C=C\C/C=C\C/C=C\CCCC(=O)Nc1ccc(O)cc1 [AM404]
Nigral neurons
  protection of nigral neurons from death caused by different insults: able to protect nigral neurons from death
